From patent EP4755881A1 (Wuhan Createrna Science and Technology Co., Ltd., priority 2023, dated 2025)
Like-named read-outs stand apart in the source and are kept apart here.

Tests used:
[1] = biological target: hLPAR1 (human lysophosphatidic acid receptor 1, Accession No.: NM_001401.4) (Homo sapiens, UniProt Q92633); experiment: cell-based; conditions: FLIPR method, CHO-K1 cells overexpressing hLPAR1
How it was run: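 Antagonist mode in CHO-K1 cells stably expressing hLPAR1, Fluo-4 loaded; compound preincubated 30 min at room temperature before 1 µM oleoyl-LPA (final) challenge.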

[2] = Pharmacokinetic study in rats (oral gavage and tail vein injection, plasma LC-MS/MS); type: in vivo; conditions: rat; for Cmax: read-out: Cmax
Method: Male SPF-grade SD rats (Beijing Vital River Laboratory Animal Technology Co., Ltd.) with a body weight range of 200 to 250 g were used. After acclimatization, the rats were administered a clear solution of the compound of the present disclosure via oral gavage (Po, fasted overnight before administration with free access to water, food returned 4 hours after administration) and tail vein injection (Iv, free access to food and water throughout the administration). Blood samples were collected from the orbital venous plexus/jugular vein of rats at specified time points after administration (blood collection time points for the PO group: 0.167, 0.5, 1, 2, 4, 6, 8, and 24 h; for the IV group: 0.033, 0.167, 1, 2, 4, 6, 8, and 24 h). The concentration of compounds in plasma was detected by LC-MS/MS (AB SCIEX Qtrap4500). Data were analyzed using WinNonlin (version 5.2.1 Pharsight, Mountain View, CA) with a non-compartmental model to obtain PK parameters (including Cmax, C0, Tmax, AUClast, AUCinf, T1/2, etc.).
Table 3: Results of in vivo pharmacokinetic studies of compounds of the present disclosure in rats
The vehicle for the Po group compound was 5% DMSO + 5% ethanol + 60% PEG400 + 30% normal saline; the vehicle for the Iv group compound was 10% ethanol + 20% pure water + 70% PEG400 solution.

[3] = LPAR1 inhibitory activity IC50, Table 1
[4] = Table 1, read-out: LPAR1 inhibitory activity IC50

hLPAR1 (human lysophosphatidic acid receptor 1, Accession No.: NM_001401.4), sequence (Q92633 whole entry): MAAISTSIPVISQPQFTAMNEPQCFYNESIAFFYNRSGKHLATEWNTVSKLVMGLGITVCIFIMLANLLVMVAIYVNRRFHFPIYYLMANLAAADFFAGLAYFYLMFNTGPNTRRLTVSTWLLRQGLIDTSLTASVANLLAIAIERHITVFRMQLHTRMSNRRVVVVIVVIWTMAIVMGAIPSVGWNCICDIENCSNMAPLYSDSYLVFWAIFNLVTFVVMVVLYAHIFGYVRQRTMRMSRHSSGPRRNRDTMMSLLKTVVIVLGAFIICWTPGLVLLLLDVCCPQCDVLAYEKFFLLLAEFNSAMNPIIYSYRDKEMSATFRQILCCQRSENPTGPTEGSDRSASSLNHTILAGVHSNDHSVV

Row | SMILES | IC50 [1, 3] | AUC(0-t) ([2]; SD rats, Iv, 1 mg/kg) | half-life ([2]; SD rats, Iv, 1 mg/kg) | Cmax ([2]; SD rats, Iv, 1 mg/kg) | AUC(0-t) ([2]; SD rats, Po, 1 mg/kg) | half-life ([2]; SD rats, Po, 1 mg/kg) | Cmax ([2]; SD rats, Po, 1 mg/kg) | IC50 [1, 4] | half-life ([2]; male, SD, iv, 1 mg/kg) | AUC(0-t) ([2]; male, SD rats, Iv, 1 mg/kg) | Cmax ([2]; male, SD rats, Iv, 1 mg/kg) | half-life ([2]; male, SD, po, 1 mg/kg) | AUC(0-t) ([2]; male, SD rats, Po, 1 mg/kg) | Cmax ([2]; male, SD rats, Po, 1 mg/kg) | other results
1 | Cc1nc(-c2nnn(C)c2NC(=O)O[C@H](C)c2ccccc2Cl)ccc1C#C[C@H]1CC[C@@H]1C(=O)O [compound 033] | 3.3 nM | 3000 to 5000 ng·h/mL | 5.93 h | 800 to 5000 ng/mL | 3000 to 5000 ng·h/mL | 5.31 h | 800 to 5000 ng/mL |  |  |  |  |  |  |  | 
2 | Cc1nc(-c2nnn(C)c2NC(=O)OC(C)CC2CC2)ccc1C#CC1CCC1C(=O)O (single isomer, unassigned) [248-A] |  | 3000 to 5000 ng·h/mL | 7.72 h | 800 to 5000 ng/mL | 5000 to 10000 ng·h/mL | 5.33 h | 200 to 800 ng/mL | 18.1 nM |  |  |  |  |  |  | 
3 | Cc1nc(-c2nnn(C)c2NC(=O)OC(C)c2cc(F)cnc2Cl)ccc1C#CC1(CC(=O)O)CC1 (single isomer, unassigned) [023-A, 2-(1-((6-(5-(((1-(2-chloro-5-fluoropyridin-3-yl)ethoxy)carbonyl)amino)-1-methyl-1H-1,2,3-triazol-4-yl)-2-methylpyridin-3-yl)ethynyl)cyclopropyl)acetic acid] |  |  |  |  |  |  |  | 37.2 nM | 7.5 h | 3000 to 5000 ng·h/mL | 5000 to 8000 ng/mL |  |  |  | 
4 | Cc1nc(-c2nnn(C)c2NC(=O)O[C@H](C)CC(C)(F)F)ccc1C#C[C@H]1CCC[C@@H]1C(=O)O (single isomer, unassigned) [246-B] | 25.9 nM | 5000 to 10000 ng·h/mL | 7.01 h | 800 to 5000 ng/mL | 3000 to 5000 ng·h/mL | 4.4 h | 200 to 800 ng/mL |  |  |  |  |  |  |  | 
5 | Cc1nc(-c2nnn(C)c2COc2nccc(C3CC(F)(F)C3)n2)ccc1C#CC1(CC(=O)O)CC1 [compound 216, 2-(1-((6-(5-(((4-(3,3-difluorocyclobutyl)pyrimidin-2-yl)oxy)methyl)-1-methyl-1H-1,2,3-triazol-4-yl)-2-methylpyridin-3-yl)ethynyl)cyclopropyl)acetic acid] |  |  |  |  |  |  |  | 23.3 nM | 4.9 h | 1200 to 3000 ng·h/mL | 5000 to 8000 ng/mL |  |  |  | half-life ([2]; male, SD, po, 3 mg/kg): 4.44 h; AUC(0-t) ([2]; male, SD rats, Po, 3 mg/kg): 5000 to 10000 ng·h/mL; Cmax ([2]; male, SD rats, Po, 3 mg/kg): 800 to 5000 ng/mL
6 | Cc1nc(-c2nnn(C)c2NC(=O)O[C@H](C)CC(C)(C)F)ccc1C#C[C@@H]1CCC[C@H]1C(=O)O (mixture of isomers) [244-B, trans-2-((6-(5-(((((R)-4-fluoro-4-methylpentan-2-yl)oxy)carbonyl)amino)-1-methyl-1H-1,2,3-triazol-4-yl)-2-methylpyridin-3-yl)ethynyl)cyclopentane-1-carboxylic acid] |  |  |  |  |  |  |  | 19.2 nM | 5.05 h | 5000 to 10000 ng·h/mL | 800 to 5000 ng/mL | 4.07 h | 5000 to 10000 ng·h/mL | 800 to 5000 ng/mL | 
7 | Cc1nc(-c2nnn(C)c2Nc2cncc(OC(C)C)n2)ccc1C#CC1(CC(=O)O)CC1 [compound 125, 2-(1-((6-(5-((6-isopropoxypyrazin-2-yl)amino)-1-methyl-1/7-1,2,3-triazol-4-yl)-2-methylpyridin-3-yl)ethynyl)cyclopropyl)acetic acid] | 43.6 nM | 1200 to 3000 ng·h/mL | 4.65 h | 800 to 5000 ng/mL |  |  |  |  |  |  |  |  |  |  | 
8 | Cc1nc(-c2nnn(C)c2CNc2nccc(C3CC(F)(F)C3)n2)ccc1C#CC1(CC(=O)O)CC1 [compound 254] |  |  |  |  |  |  |  | 63.9 nM | 7.04 h | 3000 to 5000 ng·h/mL | 5000 to 8000 ng/mL | 5.13 h | 3000 to 5000 ng·h/mL | 200 to 800 ng/mL | 
9 | C[C@H](CC(C)(F)F)OC(=O)Nc1c(-c2ccc(C#CC3(CC(=O)O)CC3)c(Cl)n2)nnn1C [compound 210, (R)-2-(1-((2-chloro-6-(5-((((4,4-difluoropentan-2-yl)oxy)carbonyl)amino)-1-methyl-1H-1,2,3-triazol-4-yl)pyridin-3-yl)ethynyl)cyclopropyl)acetic acid] |  |  |  |  |  |  |  | 24.9 nM | 6.18 h | 5000 to 10000 ng·h/mL | 800 to 5000 ng/mL | 6.08 h | 3000 to 5000 ng·h/mL | 200 to 800 ng/mL | 
10 | Cc1nc(-c2nnn(C)c2NC(=O)O[C@H](C)CC(C)(C)F)ccc1C#CC1(CC(=O)O)CC1 [compound 263] | 52.8 nM | 3000 to 5000 ng·h/mL | 13.8 h | 800 to 5000 ng/mL | 5000 to 10000 ng·h/mL | 10.2 h | 200 to 800 ng/mL |  |  |  |  |  |  |  | 
11 | Cc1nc(-c2nnn(C)c2CNC(=O)OCCC(C)C)ccc1C#CC1(CC(=O)O)CC1 [compound 253] |  |  |  |  |  |  |  | 72.3 nM | 4.06 h | 1200 to 3000 ng·h/mL | 5000 to 8000 ng/mL |  |  |  | half-life ([2]; male, SD, po, 3 mg/kg): 3.45 h; AUC(0-t) ([2]; male, SD rats, Po, 3 mg/kg): 5000 to 10000 ng·h/mL; Cmax ([2]; male, SD rats, Po, 3 mg/kg): 800 to 5000 ng/mL
12 | CCC(F)(F)[C@@H](C)OC(=O)Nc1c(-c2ccc(C#C[C@@H]3CC[C@H]3C(=O)O)c(C)n2)nnn1C (mixture of isomers) [212-B, trans-2-((6-(5-(((((R)-3,3-difluoropentan-2-yl)oxy)carbonyl)amino)-1-methyl-1H-1,2,3-triazol-4-yl)-2-methylpyridin-3-yl)ethynyl)cyclobutane-1-carboxylic acid] |  |  |  |  |  |  |  | 25.9 nM | 7.43 h | 5000 to 10000 ng·h/mL | 800 to 5000 ng/mL | 7.96 h | 5000 to 10000 ng·h/mL | 800 to 5000 ng/mL | 
13 | Cc1nc(-c2nnn(C)c2CNC(=O)OCc2ccccc2)ccc1C#CC1(CC(=O)O)CC1 [compound 215] | 43 nM | 1200 to 3000 ng·h/mL | 5.03 h | 800 to 5000 ng/mL |  |  |  |  |  |  |  |  |  |  | AUC(0-t) ([2]; SD rats, Po, 3 mg/kg): 5000 to 10000 ng·h/mL; half-life ([2]; SD rats, Po, 3 mg/kg): 4.49 h; Cmax ([2]; SD rats, Po, 3 mg/kg): 800 to 5000 ng/mL
14 | Cc1nc(-c2nnn(C)c2NC(=O)O[C@H](C)CC(C)(F)F)ccc1C#CC1(CC(=O)O)CCC1 [compound 324] |  |  |  |  |  |  |  | 50.3 nM | 12.1 h | 3000 to 5000 ng·h/mL | 800 to 5000 ng/mL | 5.73 h | 5000 to 10000 ng·h/mL | 800 to 5000 ng/mL | 
15 | CCC(F)(F)CC(C)OC(=O)Nc1c(-c2ccc(C#CC3CCC3C(=O)O)c(C)n2)nnn1C (single isomer, unassigned) [245-B] |  | 3000 to 5000 ng·h/mL | 7.22 h | 800 to 5000 ng/mL | 3000 to 5000 ng·h/mL | 6.66 h | 200 to 800 ng/mL | 34.6 nM |  |  |  |  |  |  | 
16 | Cc1nc(-c2nnn(C)c2CNc2nccc(C3CCC3)n2)ccc1C#CC1(CC(=O)O)CC1 [compound 214, 2-(1-((6-(5-(((4-cyclobutylpyrimidin-2-yl)amino)methyl)-1-methyl-1H-1,2,3-triazol-4-yl)-2-methylpyridin-3-yl)ethynyl)cyclopropyl)acetic acid] |  |  |  |  |  |  |  | 9.4 nM | 7.01 h | 3000 to 5000 ng·h/mL | 800 to 5000 ng/mL |  |  |  | half-life ([2]; male, SD, po, 3 mg/kg): 8.21 h; AUC(0-t) ([2]; male, SD rats, Po, 3 mg/kg): 10000 to 20000 ng·h/mL; Cmax ([2]; male, SD rats, Po, 3 mg/kg): 800 to 5000 ng/mL
